Measured values: article PMC11677527, “Predicting Pharmacokinetics of Active Constituents in Spatholobi caulis by Using Physiologically Based Pharmacokinetic Models” (Pharmaceuticals, 2024)
Where two headings read alike, the source gives them in different places.

What was measured:
[1] = Observed pharmacokinetics in rats after oral SPC (previous study); assay type: in vivo, rat; conditions: p.o. SPC
[2] = design: method as in PMID 34303214; conditions: rats, p.o. SPC 30 g crude drug/kg; doses of 1-4: 0.062, 0.11, 0.71, 1.31 mg/kg; cited from earlier work
Caco-2 cell monolayer = tested on: Caco-2 cell monolayer; design: method as in PMID 36680806, PMID 26501241; conditions: Caco-2 cell monolayer model; cited from earlier work
[3] = Verification pharmacokinetic experiment in rats, SPC 60 g crude drug/kg by gavage, UFLC-MS/MS, DAS 2.0; assay type: in vivo, rat
Protocol: To validate the accuracy of PBPK models in predicting the pharmacokinetics of SPC constituents at different oral doses, the pharmacokinetic behavior of these four constituents from SPC in rats were analyzed by UFLC-MS/MS. The parameters were calculated using Drug and Statistics Software version 2.0, and then these validated values (Val.) were used to check the accuracy of the Calc. values and evaluated by FE.
The pharmacokinetic fitting results of rats given 60 g crude drug/kg body weight of SPC by gavage were verified by experiments. The verification experiment was conducted according to our previous pharmacokinetic study. In brief, 1.5 mL suspension of SPC was given to rats by oral administration; 300 μL blood samples from orbital venous at 0.083, 0.25, 0.5, 0.75, 1.0, 1.5, 2, 3, 4, 6, 8, and 12 h were collected and pretreated with heparin sodium. After centrifugation, the plasma samples were obtained and further processed for subsequent detection by UFLC-MS/MS; the detailed analysis method is shown in Supplementary Data (Table S1 and Figure S1). The concentration-time curve of each compound was gained, and the pharmacokinetic parameters were calculated using DAS 2.0 software (DAS 2.0, Mathematical Pharmacology Professional Committee of China, Shanghai, China). The results of these four constituents were compared with the PBPK parameters predicted in rats at an oral dose of 60 g crude drug/kg body weight of SPC.
1. The instrument and analytical conditions of UFLC-MS/MS method
4 constituents (1. 3′-methoxydadizein; 2. 8-O-methylretusin; 3. Daidzin; and 4. […]
The internal standard (IS) carbamazepine with a purity of more than 99 % was purchased from Beijing JK-chemical technology Co. Ltd., (Beijing China). Heparin sodium was gained from Tianjin biochemical pharmaceutical Co. Ltd, (Tianjin, China).
Ammonium acetate of HPLC grade, methanol and acetonitrile of LC-MS grade were purchased from Sigma (LOT# BCBK6717V, sigma-aldrich, Co., MO, USA) and Fisher (Fisher Corp., Fair lawn, NJ, USA) respectively. The experimental ultrapure water was prepared by Millipore Milli-Q ultrapure water preparation apparatus (Millipore Sigma, […]
The detailed information of Shimadzu UFLC-MS/MS 8050 liquid mass system equipped with Nexera X2UFLC liquid chromatography system and 8050 triple quadrupole mass spectrometers with an electrospray ionization source were listed in our previous study. The supporting LabSolution workstation was used for data […]
The separation without superposition of analytes in plasma sample was achieved on a Kinetex® C18 chromatographic column (100mm×2.1mm i.d.; 2.6 μm, 100 Å; Phenomenex, Inc., Torrance, CA, USA) assembled with a Phenomenex p/n AJ0-9000 C18 protection column. The mobile phase was consisted of 0.5 mM ammonium acetate in water (A) and ACN (B). The gradient elution program was selected ultimately as […]
95 % B (18.7–22 min). Column and automatic sampler temperature were set as 30 °C and 4 °C respectively. The flow rate of mobile phase was 0.35 mL/min while sample injection volume was 4 μL.
Multiple reaction monitoring (MRM) of positive or negative modes were used as scanning modes for the analytes and IS. Other essential parameters were successively optimized as: Nebulizing gas flow, 3 L/min; Heating gas flow, 10 L/min; Drying gas flow, 10 L/min; Interface temperature, 300 °C; DL temperature, 250 °C; Interface and detector voltage were each set as 3.0 kV and 1.8 kV. The detection parameters such as retention time (RT), dwell time (DT), quadrupole 1 pre-rod bias (Q1), collision energy […]
Table S1 The retention time and ion equivalent parameters of 4 constituents in rat […]
Constituents Retention Precursor Precursor Product time Pre energy Pre time (min) ion species ion ion (msec) Bias (V) Bias

[4] = compartment model parameters, DAS 2.0, rats p.o. SPC 60 g crude drug/kg, Mean, 5 rats
[5] = statistical moment parameters, DAS 2.0, rats p.o. SPC 60 g crude drug/kg, Mean, 5 rats
[6] = statistical moment parameters, DAS 2.0, rats p.o. SPC 60 g crude drug/kg, Mean, 5 rats, in µg·h²/mL

O=c1c(-c2ccc(O)cc2)coc2cc(O[C@@H]3O[C@H](CO)[C@@H](O)[C@H](O)[C@H]3O)ccc12 [Constituent 3, daidzin]
time of slight secondary absorption peak [1]: 6 h
AUC0→t Obs. [2]: 28.4 ng·h/mL
AUC0→∞ Obs. [2]: 30.5 ng·h/mL
Cmax Obs. [2]: 15.1 ng/mL
Tmax Obs. [2]: 0.21 h
Papp (Caco-2 cell monolayer): 4 ×10⁻⁶ cm/s
K10 [3, 4]: 0.981 h⁻¹
K12 [3, 4]: 0.402 h⁻¹
K21 [3, 4]: 0.15 h⁻¹
Ka [3, 4]: 16.131 h⁻¹
Tlag [3, 4]: 0 h
V1/F [3, 4]: 37.289 L/kg
t1/2Ka [3, 4]: 0.385 h
t1/2α [3, 4]: 0.868 h
concentration at 0.083 h ([3]; rat, plasma, oral, time 0.083 h, rats p.o. SPC 60 g crude drug/kg, doses of 1-4: 0.124, 0.22, 1.4, 2.62 mg/kg, 5 rats): 16.4 ng/mL
concentration at 0.25 h ([3]; rat, plasma, oral, time 0.25 h, rats p.o. SPC 60 g crude drug/kg, doses of 1-4: 0.124, 0.22, 1.4, 2.62 mg/kg, 5 rats): 28 ng/mL
concentration at 0.5 h ([3]; rat, plasma, oral, time 0.5 h, rats p.o. SPC 60 g crude drug/kg, doses of 1-4: 0.124, 0.22, 1.4, 2.62 mg/kg, 5 rats): 21 ng/mL
concentration at 0.75 h ([3]; rat, plasma, oral, time 0.75 h, rats p.o. SPC 60 g crude drug/kg, doses of 1-4: 0.124, 0.22, 1.4, 2.62 mg/kg, 5 rats): 18.4 ng/mL
concentration at 1 h ([3]; rat, plasma, oral, time 1 h, rats p.o. SPC 60 g crude drug/kg, doses of 1-4: 0.124, 0.22, 1.4, 2.62 mg/kg, 5 rats): 10.9 ng/mL
concentration at 1.5 h ([3]; rat, plasma, oral, time 1.5 h, rats p.o. SPC 60 g crude drug/kg, doses of 1-4: 0.124, 0.22, 1.4, 2.62 mg/kg, 5 rats): 5.55 ng/mL
concentration at 2 h ([3]; rat, plasma, oral, time 2 h, rats p.o. SPC 60 g crude drug/kg, doses of 1-4: 0.124, 0.22, 1.4, 2.62 mg/kg, 5 rats): 3.16 ng/mL
concentration at 3 h ([3]; rat, plasma, oral, time 3 h, rats p.o. SPC 60 g crude drug/kg, doses of 1-4: 0.124, 0.22, 1.4, 2.62 mg/kg, 5 rats): 2.62 ng/mL
concentration at 4 h ([3]; rat, plasma, oral, time 4 h, rats p.o. SPC 60 g crude drug/kg, doses of 1-4: 0.124, 0.22, 1.4, 2.62 mg/kg, 5 rats): 1.56 ng/mL
concentration at 6 h ([3]; rat, plasma, oral, time 6 h, rats p.o. SPC 60 g crude drug/kg, doses of 1-4: 0.124, 0.22, 1.4, 2.62 mg/kg, 5 rats): 1.39 ng/mL
concentration at 8 h ([3]; rat, plasma, oral, time 8 h, rats p.o. SPC 60 g crude drug/kg, doses of 1-4: 0.124, 0.22, 1.4, 2.62 mg/kg, 5 rats): 1.18 ng/mL
AUC(0-t) ([3]; rat, plasma, po, 1.4 mg/kg, compartment model parameters, DAS 2.0, rats p.o. SPC 60 g crude drug/kg, Mean, 5 rats, read-out: AUC(0-t)): 37.1 ng·h/mL
AUC(0-inf) ([3]; rat, plasma, po, 1.4 mg/kg, compartment model parameters, DAS 2.0, rats p.o. SPC 60 g crude drug/kg, Mean, 5 rats, read-out: AUC(0-∞)): 39.5 ng·h/mL
CL/F ([3]; rat, plasma, po, 1.4 mg/kg, compartment model parameters, DAS 2.0, rats p.o. SPC 60 g crude drug/kg, Mean, 5 rats, read-out: CL/F (converted)): 594 mL/min/kg
half-life ([3]; rat, plasma, po, 1.4 mg/kg, compartment model parameters, DAS 2.0, rats p.o. SPC 60 g crude drug/kg, Mean, 5 rats, read-out: t1/2β (converted)): 36.5 h
AUC(0-t) ([3]; rat, plasma, po, 1.4 mg/kg, statistical moment parameters, DAS 2.0, rats p.o. SPC 60 g crude drug/kg, Mean, 5 rats, read-out: AUC(0-t)): 35.5 ng·h/mL
AUC(0-inf) ([3]; rat, plasma, po, 1.4 mg/kg, statistical moment parameters, DAS 2.0, rats p.o. SPC 60 g crude drug/kg, Mean, 5 rats, read-out: AUC(0-∞)): 35.9 ng·h/mL
CL/F ([3]; rat, plasma, po, 1.4 mg/kg, statistical moment parameters, DAS 2.0, rats p.o. SPC 60 g crude drug/kg, Mean, 5 rats, read-out: CLz/F (converted)): 652 mL/min/kg
MRT last ([3]; rat, plasma, po, 1.4 mg/kg, statistical moment parameters, DAS 2.0, rats p.o. SPC 60 g crude drug/kg, Mean, 5 rats, read-out: MRT(0-t)): 1.83 h
MRT inf ([3]; rat, plasma, po, 1.4 mg/kg, statistical moment parameters, DAS 2.0, rats p.o. SPC 60 g crude drug/kg, Mean, 5 rats, read-out: MRT(0-∞)): 2.09 h
Tmax ([3]; rat, plasma, po, 1.4 mg/kg, statistical moment parameters, DAS 2.0, rats p.o. SPC 60 g crude drug/kg, Mean, 5 rats, read-out: Tmax): 0.25 h
Vd/F ([3]; rat, plasma, po, 1.4 mg/kg, statistical moment parameters, DAS 2.0, rats p.o. SPC 60 g crude drug/kg, Mean, 5 rats, read-out: Vz/F): 103 L/kg
half-life ([3]; rat, plasma, po, 1.4 mg/kg, statistical moment parameters, DAS 2.0, rats p.o. SPC 60 g crude drug/kg, Mean, 5 rats, read-out: t1/2z (converted)): 1.82 h
AUC(0-t) ([3]; rat, plasma, po, 2.62 mg/kg, rats, p.o. SPC 60 g crude drug/kg, doses of 1-4: 0.124, 0.22, 1.42, 2.62 mg/kg, n = 5, read-out: AUC0→t Val.): 35.5 ng·h/mL
AUC(0-inf) ([3]; rat, plasma, po, 2.62 mg/kg, rats, p.o. SPC 60 g crude drug/kg, doses of 1-4: 0.124, 0.22, 1.42, 2.62 mg/kg, n = 5, read-out: AUC0→∞ Val.): 35.9 ng·h/mL
Tmax ([3]; rat, plasma, po, rats, p.o. SPC 60 g crude drug/kg, doses of 1-4: 0.124, 0.22, 1.42, 2.62 mg/kg, n = 5, read-out: Tmax Val.): 0.25 h
Cmax [3, 5]: 27.183 ng/mL
Cz [3, 5]: 0.117 µg/L
VRT(0-t) [3, 5]: 4.934 h^2
VRT(0-∞) [3, 5]: 8.138 h^2
elimination rate constant [3, 5]: 0.429 h⁻¹
AUMC(0-t) [3, 6]: 65.207
AUMC(0-∞) [3, 6]: 75.236
